The source of these data is BindingDB's records for doi:10.1016/j.bmcl.2010.04.142 (Glaxosmithkline, 2010).

Assay [1] in a line: Antagonist activity at CCR2 in human THP1 cells assessed as inhibition of CCL2-induced chemotaxis in presence of 1% human serum.
Assay [2] is described as follows: Antagonist activity at CCR2 in human THP1 cells assessed as inhibition of CCL2-induced chemotaxis in presence of 1% fetal bovine serum.

As for `O=C(O)c1ccccc1Oc1c(F)cc(C(F)(F)F)cc1NS(=O)(=O)c1ccc(Cl)cc1`, the inhibition constant (Ki) – broadly, a dissociation constant, usually derived from enzyme kinetics or from competition with a known ligand – in assay [1] was 12600 nM; in assay [2] it was 63.1 nM.

Regarding `O=C(O)c1ccccc1Oc1ccccc1NS(=O)(=O)c1ccc(Cl)cc1`, the inhibitory constant (Ki) in assay [1] and in assay [2] was 398 nM in each case.

With `O=C(O)c1c(F)cccc1Oc1ccc(C(F)(F)F)cc1NS(=O)(=O)c1ccc(Cl)cc1`, the Ki in assay [1] was determined as 10000 nM; in assay [2] it was 158 nM.
